In ChEMBL document CHEMBL1201862, “PubChem BioAssay data set” (2004):
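96-well plates; 48 h exposure; 5 concentrations. Endpoints by linear interpolation between flanking doses. Not reached: highest tested concentration assigned. GI50: concentration for 50% inhibition of growth.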 Active and inactive are the calls of the source. No stated cut-off is given here; in the data, active = GI50 up to about 1.1 µM and inactive = higher.

Columns and labels:
Experiment in all cases: NCI-60 cell line screen, 48 h
NCI-H522 = system: NCI-H522
MDA-MB-435 = system: MDA-MB-435
UACC-62 = system: UACC-62
OVCAR-3 = system: OVCAR-3
TK-10 = system: TK-10
HCT-15 = system: HCT-15
SNB-19 = system: SNB-19
LOX IMVI = system: LOX IMVI
MDA-MB-231 = system: MDA-MB-231
HOP-62 = system: HOP-62
HL-60 = system: HL-60
CAKI-1 = system: CAKI-1
786-0 = system: 786-0
ACHN = system: ACHN
UO-31 = system: UO-31
OVCAR-4 = system: OVCAR-4
NCI/ADR-RES = system: NCI/ADR-RES
DU-145 = system: DU-145
RPMI-8226 = system: RPMI-8226
HOP-92 = system: HOP-92
SF-295 = system: SF-295
T47D = system: T47D
KM12 = system: KM12
EKVX = system: EKVX
SK-OV-3 = system: SK-OV-3
U-251 = system: U-251
UACC-257 = system: UACC-257
PC-3 = system: PC-3
OVCAR-5 = system: OVCAR-5
BT-549 = system: BT-549
SW-620 = system: SW-620
SK-MEL-2 = system: SK-MEL-2
Hs-578T = system: Hs-578T
SK-MEL-28 = system: SK-MEL-28
K562 = system: K562
OVCAR-8 = system: OVCAR-8
SR = system: SR
M14 = system: M14
NCI-H460 = system: NCI-H460
COLO 205 = system: COLO 205
A498 = system: A498
CCRF-CEM = system: CCRF-CEM
SF-268 = system: SF-268
SK-MEL-5 = system: SK-MEL-5
SF-539 = system: SF-539
MDA-N = system: MDA-N
SN12C = system: SN12C
HT-29 = system: HT-29
SNB-75 = system: SNB-75
IGROV-1 = system: IGROV-1
NCI-H23 = system: NCI-H23
Malme-3M = system: Malme-3M
A549 = system: A549
MOLT-4 = system: MOLT-4
NCI-H226 = system: NCI-H226
MCF7 = system: MCF7
HCC 2998 = system: HCC 2998
RXF 393 = system: RXF 393

With `CC(C)(C)OC(=O)n1c(Cl)c(C=O)c2ccccc21` the GI50 (NCI-H522) was > 100 µM (inactive), the GI50 (MDA-MB-435) was 43.9 µM (inactive) and the GI50 (UACC-62) was 19.3 µM (inactive). The GI50 (OVCAR-3) was 19.4 µM (inactive), the GI50 (TK-10) was 25.6 µM (inactive) and the GI50 (HCT-15) was 27.1 µM. For the same compound, the GI50 (SNB-19) was 86.1 µM (inactive), the GI50 (LOX IMVI) was 26.4 µM (inactive) and the GI50 (MDA-MB-231) was 33.3 µM (inactive). The GI50 (HOP-62) was 20.6 µM (inactive), the GI50 (HL-60) was 33.8 µM (inactive) and the GI50 (CAKI-1) was 17.2 µM (inactive). The GI50 (786-0) was 21 µM (inactive), the GI50 (ACHN) was 23.9 µM (inactive) and the GI50 (UO-31) was 19.1 µM (inactive). The GI50 (OVCAR-4) was 36.6 µM (inactive), the GI50 (NCI/ADR-RES) was 30.7 µM (inactive) and the GI50 (DU-145) was 19.3 µM (inactive). For the same compound, the GI50 (RPMI-8226) was 10.9 µM (inactive), the GI50 (HOP-92) was 30.9 µM (inactive) and the GI50 (SF-295) was 63.2 µM (inactive). For the same compound, the GI50 (T47D) was 30.6 µM (inactive), the GI50 (KM12) was 18.4 µM (inactive) and the GI50 (EKVX) was 28 µM (inactive). For the same compound, the GI50 (SK-OV-3) was > 100 µM (inactive), the GI50 (U-251) was 35.6 µM (inactive) and the GI50 (UACC-257) was 28.8 µM (inactive). For the same compound, the GI50 (PC-3) was 22 µM (inactive), the GI50 (OVCAR-5) was 35.5 µM (inactive) and the GI50 (BT-549) was 21.3 µM (inactive). For the same compound, the GI50 (SW-620) was 36.2 µM (inactive), the GI50 (SK-MEL-2) was 30.1 µM (inactive) and the GI50 (Hs-578T) was 34.8 µM (inactive). The GI50 (SK-MEL-28) was 39.9 µM (inactive), the GI50 (K562) was 38.7 µM (inactive) and the GI50 (OVCAR-8) was 28.1 µM (inactive). The GI50 (SR) was 31.2 µM (inactive), the GI50 (M14) was 34.8 µM (inactive) and the GI50 (NCI-H460) was 21.2 µM (inactive). The GI50 (COLO 205) was 56.4 µM (inactive), the GI50 (A498) was 43.6 µM (inactive) and the GI50 (CCRF-CEM) was 27.9 µM (inactive). For the same compound, the GI50 (SF-268) was 17.9 µM (inactive), the GI50 (SK-MEL-5) was 43.5 µM (inactive) and the GI50 (SF-539) was 30.1 µM (inactive). For the same compound, the GI50 (MDA-N) was 44.5 µM (inactive), the GI50 (SN12C) was 23.7 µM (inactive) and the GI50 (HT-29) was 30.5 µM (inactive). The GI50 (SNB-75) was 68.5 µM (inactive), the GI50 (IGROV-1) was 28.2 µM (inactive) and the GI50 (NCI-H23) was 23.3 µM (inactive). The GI50 (Malme-3M) was 19.1 µM (inactive), the GI50 (A549) was 92.9 µM (inactive) and the GI50 (MOLT-4) was 51.8 µM (inactive).

With `O=C1CNc2cc(N3CCCCC3)ccc2N1` the GI50 (NCI-H522) was > 100 µM (inactive), the GI50 (MDA-MB-435) was 60.4 µM (inactive) and the GI50 (UACC-62) was 25.4 µM (inactive). The GI50 (OVCAR-3) was > 100 µM (inactive), the GI50 (TK-10) was > 100 µM (inactive) and the GI50 (HCT-15) was over 100 µM. The GI50 (SNB-19) was > 100 µM (inactive), the GI50 (NCI-H226) was 16.3 µM (inactive) and the GI50 (HOP-62) was > 100 µM (inactive). The GI50 (HL-60) was > 100 µM (inactive), the GI50 (ACHN) was > 100 µM (inactive) and the GI50 (UO-31) was > 100 µM (inactive). For the same compound, the GI50 (OVCAR-4) was > 100 µM (inactive), the GI50 (NCI/ADR-RES) was > 100 µM (inactive) and the GI50 (DU-145) was > 100 µM (inactive). For the same compound, the GI50 (MCF7) was > 100 µM (inactive), the GI50 (RPMI-8226) was > 100 µM (inactive) and the GI50 (HOP-92) was > 100 µM (inactive). The GI50 (SF-295) was > 100 µM (inactive), the GI50 (T47D) was > 100 µM (inactive) and the GI50 (KM12) was 49.4 µM (inactive). The GI50 (EKVX) was 21.2 µM (inactive), the GI50 (SK-OV-3) was > 100 µM (inactive) and the GI50 (U-251) was > 100 µM (inactive). For the same compound, the GI50 (UACC-257) was > 100 µM (inactive), the GI50 (PC-3) was > 100 µM (inactive) and the GI50 (OVCAR-5) was > 100 µM (inactive). For the same compound, the GI50 (BT-549) was > 100 µM (inactive), the GI50 (SW-620) was > 100 µM (inactive) and the GI50 (SK-MEL-2) was > 100 µM (inactive). The GI50 (Hs-578T) was 4.43 µM (inactive), the GI50 (SK-MEL-28) was > 100 µM (inactive) and the GI50 (HCC 2998) was > 100 µM (inactive). For the same compound, the GI50 (K562) was > 100 µM (inactive), the GI50 (OVCAR-8) was > 100 µM (inactive) and the GI50 (SR) was 74.6 µM (inactive). For the same compound, the GI50 (M14) was 66.1 µM (inactive), the GI50 (NCI-H460) was > 100 µM (inactive) and the GI50 (CCRF-CEM) was 99.5 µM (inactive). The GI50 (SK-MEL-5) was 43.8 µM (inactive), the GI50 (SF-539) was > 100 µM (inactive) and the GI50 (MDA-N) was 75.2 µM (inactive). For the same compound, the GI50 (SN12C) was > 100 µM (inactive), the GI50 (HT-29) was 8.32 µM (inactive) and the GI50 (SNB-75) was 66.2 µM (inactive). The GI50 (IGROV-1) was 13.9 µM (inactive), the GI50 (NCI-H23) was > 100 µM (inactive) and the GI50 (Malme-3M) was > 100 µM (inactive). For the same compound, the GI50 (A549) was > 100 µM (inactive) and the GI50 (MOLT-4) was > 100 µM (inactive).

In the case of `COC(=O)[C@@]12OC[C@]34[C@H]([C@@H](O)[C@@H]1O)[C@@]1(C)CC(=O)C(OC(C)=O)=C(C)[C@@H]1C[C@H]3OC(=O)[C@H](OC(=O)C=C(C)C)[C@@H]24`, the GI50 (MDA-MB-435) is reported as 0.738 µM (active), the GI50 (UACC-62) is reported as 0.721 µM (active) and the GI50 (TK-10) is reported as 1 µM (active). For the same compound, the GI50 (HCT-15) was 1.77 µM, the GI50 (SNB-19) was 0.627 µM (active) and the GI50 (NCI-H226) was 0.746 µM (active). For the same compound, the GI50 (MDA-MB-231) was 1.81 µM (inactive), the GI50 (HOP-62) was 0.607 µM (active) and the GI50 (CAKI-1) was 2.7 µM (inactive). The GI50 (786-0) was 0.895 µM (active), the GI50 (ACHN) was 1.82 µM (inactive) and the GI50 (UO-31) was 2.64 µM (inactive). For the same compound, the GI50 (OVCAR-4) was 0.752 µM (active), the GI50 (NCI/ADR-RES) was 12.8 µM (inactive) and the GI50 (DU-145) was 1.34 µM (inactive). The GI50 (HOP-92) was 0.813 µM (active), the GI50 (SF-295) was 0.82 µM (active) and the GI50 (T47D) was 0.977 µM (active). The GI50 (KM12) was 0.596 µM (active), the GI50 (EKVX) was 1.44 µM (inactive) and the GI50 (UACC-257) was 0.557 µM (active). The GI50 (PC-3) was 0.948 µM (active), the GI50 (OVCAR-5) was 1.75 µM (inactive) and the GI50 (BT-549) was 1.52 µM (inactive). For the same compound, the GI50 (SW-620) was 0.914 µM (active), the GI50 (SK-MEL-2) was 0.656 µM (active) and the GI50 (Hs-578T) was 0.857 µM (active). For the same compound, the GI50 (OVCAR-8) was 0.743 µM (active), the GI50 (M14) was 0.755 µM (active) and the GI50 (COLO 205) was 0.764 µM (active). For the same compound, the GI50 (A498) was 0.43 µM (active), the GI50 (SF-268) was 0.853 µM (active) and the GI50 (RXF 393) was 0.75 µM (active). For the same compound, the GI50 (MDA-N) was 0.714 µM (active), the GI50 (SN12C) was 1.17 µM (inactive) and the GI50 (HT-29) was 0.543 µM (active). For the same compound, the GI50 (SNB-75) was 1.44 µM (inactive), the GI50 (NCI-H23) was 0.574 µM (active) and the GI50 (A549) was 0.838 µM (active).
